Source: patent US12624023B2, “Sulfonylurea derivatives and uses thereof” (NodThera Limited, priority 2019, dated 2026)

Experiments:
[1] = system: IL-1β release upon NLRP3 activation in human whole blood; experiment: Whole blood (WB) assay (IL-1β release, LPS priming + ATP stimulation, HTRF); assay type: cell-based; conditions: heparin, diluted 9:5 with media, LPS 1 μg/ml 3 h, compound 30 min, ATP 5 mM 1 h, IL-1β by HTRF
How it was run: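 Heparinised human whole blood, diluted 9:5 in medium, was primed with LPS (1 μg/ml final) for 3 h. Compound was then added for 30 min, followed by ATP (5 mM final) for 1 h. Secreted IL-1β was measured in the media by HTRF (655/620 nm).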

[2] = system: IL-1β release upon NLRP3 activation in peripheral blood mononuclear cells (PBMC); experiment: PBMC IC50 determination assay (IL-1β release, LPS priming + ATP stimulation, HTRF); assay type: cell-based; conditions: PBMC from buffy coats; LPS 1 μg/ml 3 h, compound 30 min, ATP 5 mM 1 h; IL-1β by HTRF
How it was run: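 Buffy-coat PBMC were primed with LPS (1 μg/ml) for 3 h, given compound for 30 min, then stimulated with 5 mM ATP for 1 h. IL-1β released into the medium was quantified by HTRF, reading 655 and 620 nm.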

Row | Structure (SMILES) | IC50 [1] | IC50 [2]
1 | Cc1sc2c(c1NC(=O)NS(=O)(=O)N(c1cnn(C)c1)[C@@H]1CCN(C)C1)CCC2 [Compound 126, 1-[(1-Methyl-1H-pyrazol-4-yl)[(3R)-1-methylpyrrolidin-3-yl]sulfamoyl]-3-{2-methyl-4H,5H,6H-cyclopenta[b]thiophen-3-yl}urea] | < 1 µM | < 0.1 µM
2 | COc1sc2c(c1NC(=O)NS(=O)(=O)N(c1cnn(C)c1)C1CCCN(C)C1)CCC2 (centres unmarked) [Compound 102, 3-{2-Methoxy-4H,5H,6H-cyclopenta[b]thiophen-3-yl}-1-[(1-methyl-1H-pyrazol-4-yl)(1-methylpiperidin-3-yl)sulfamoyl]urea] | 1 to 3 µM | 0.1 to 0.5 µM
3 | CCc1cc(NC(=O)NS(=O)(=O)N(c2cnn(C)c2)C2CCCN(C)C2)c(CC)o1 (centres unmarked) [Compound 28, 3-(2,5-Diethylfuran-3-yl)-1-[(1-methyl-1H-pyrazol-4-yl)(1-methylpiperidin-3-yl)sulfamoyl]urea] | 1 to 3 µM | 0.1 to 0.5 µM
4 | CC(C)c1cc(NC(=O)NS(=O)(=O)N(c2cnn(C)c2)C2CCCN(C)C2)c(C(C)C)s1 (centres unmarked) [Compound 11, 3-[2,5-Bis(propan-2-yl)thiophen-3-yl]-1-[(1-methyl-1H-pyrazol-4-yl)(1-methyl-piperidin-3-yl)sulfamoyl]urea] | < 1 µM | < 0.1 µM
5 | CCc1csc(CC)c1NC(=O)NS(=O)(=O)N(c1cnn(C)c1)C1CCOCC1 [Compound 7, 3-(2,4-Diethylthiophen-3-yl)-1-[(1-methyl-1H-pyrazol-4-yl)(oxan-4-yl)sulfamoyl]urea] | 10 to 20 µM | 1 to 5 µM
6 | CCc1cc(NC(=O)NS(=O)(=O)N(c2cnn(C)c2)C2CCCN(C)C2)c(C(C)C)o1 (centres unmarked) [Compound 79, 3-[5-Ethyl-2-(propan-2-yl)furan-3-yl]-1-[(1-methyl-1H-pyrazol-4-yl)(1-methyl-piperidin-3-yl)sulfamoyl]urea] | < 1 µM | < 0.1 µM
7 | CCc1csc(CC)c1NC(=O)NS(=O)(=O)N(c1cnn(C)c1)C1CCCN(C)C1 (centres unmarked) [Compound 14, 3-(2,4-Diethylthiophen-3-yl)-1-[(1-methyl-1H-pyrazol-4-yl)(1-methylpiperidin-3-yl)sulfamoyl]urea] | 1 to 3 µM | < 0.1 µM
8 | Cc1cc(NC(=O)NS(=O)(=O)N(c2cnn(C3CC3)c2)[C@@H]2CCCN(C)C2)c(C2CC2)s1 [Compound 106, 1-[(1-Cyclopropyl-1H-pyrazol-4-yl)[(3R)-1-methylpiperidin-3-yl]sulfamoyl]-3-(2-cyclopropyl-5-methylthiophen-3-yl)urea] | 1 to 3 µM | 0.1 to 0.5 µM
9 | Cc1sc2c(c1NC(=O)NS(=O)(=O)N(c1cnn(C)c1)[C@H]1CCN(C)C1)CCC2 [Compound 125, 1-[(1-Methyl-1H-pyrazol-4-yl)[(3S)-1-methylpyrrolidin-3-yl]sulfamoyl]-3-{2-methyl-4H,5H,6H-cyclopenta[b]thiophen-3-yl}urea] | < 1 µM | < 0.1 µM
10 | Cc1sc2c(c1NC(=O)NS(=O)(=O)N(c1cnn(C)c1)C1CCCN(C)C1)CCC2 (centres unmarked) [Compound 32, 1-[(1-Methyl-1H-pyrazol-4-yl)(1-methylpiperidin-3-yl)sulfamoyl]-3-{2-methyl-4H,5H,6H-cyclopenta[b]thiophen-3-yl}urea] | < 1 µM | 0.1 to 0.5 µM
11 | Cn1cc(N(C2CCOCC2)S(=O)(=O)NC(=O)Nc2cc(Cl)sc2Cl)cn1 [Compound 5, 3-(2,5-Dichlorothiophen-3-yl)-1-[(1-methyl-1H-pyrazol-4-yl)(oxan-4-yl)sulfamoyl]urea] | > 20 µM | 5 to 10 µM
12 | CC(C)c1cc(NC(=O)NS(=O)(=O)N(c2cnn(C3CC3)c2F)C2CCCN(C)C2)c(C(C)C)s1 (centres unmarked) [Compound 99, 3-[2,5-Bis(propan-2-yl)thiophen-3-yl]-1-[(1-cyclopropyl-5-fluoro-1H-pyrazol-4-yl)(1-methylpiperidin-3-yl)sulfamoyl]urea] | 1 to 3 µM | < 0.1 µM
13 | Cc1sc(C)c(NC(=O)NS(=O)(=O)N(c2cnn(C)c2)C2CCCN(C)C2)c1C (centres unmarked) [Compound 15, 1-[(1-Methyl-1H-pyrazol-4-yl)(1-methylpiperidin-3-yl)sulfamoyl]-3-(2,4,5-trimethylthiophen-3-yl)urea] | > 20 µM | 0.5 to 1 µM
14 | Cc1cc(NC(=O)NS(=O)(=O)N(c2cnn(C)c2)C2CCN(C)CC2)c(C(C)C)s1 [Compound 100, 1-[(1-Methyl-1H-pyrazol-4-yl)(1-methylpiperidin-4-yl)sulfamoyl]-3-[5-methyl-2-(propan-2-yl)thiophen-3-yl]urea] | < 1 µM | 0.1 to 0.5 µM
15 | CC(C)c1cc(NC(=O)NS(=O)(=O)N(c2cnn(C)c2)[C@H]2C[C@@H](F)CN(C)C2)c(C(C)C)s1 [Compound 96, 3-[2,5-Bis(propan-2-yl)thiophen-3-yl]-1-{[(3S,5R)-5-fluoro-1-methylpiperidin-3-yl](1-methyl-1H-pyrazol-4-yl)sulfamoyl}urea] | 3 to 10 µM | 0.1 to 0.5 µM
16 | CC(C)c1cc(NC(=O)NS(=O)(=O)N(c2cnn(C)c2)C2CCOCC2)c(C(C)C)s1 [Compound 6, 3-[2,5-Bis(propan-2-yl)thiophen-3-yl]-1-[(1-methyl-1H-pyrazol-4-yl)(oxan-4-yl)sulfamoyl]urea] | > 20 µM | 0.5 to 1 µM
17 | Cc1c(C(C)C)sc(C(C)C)c1NC(=O)NS(=O)(=O)N(c1cnn(C)c1)[C@@H]1CCCN(C)C1 [Compound 67, 1-[(1-Methyl-1H-pyrazol-4-yl)[(3R)-1-methylpiperidin-3-yl]sulfamoyl]-3-[4-methyl-2,5-bis(propan-2-yl)thiophen-3-yl]urea] | < 1 µM | 0.1 to 0.5 µM
18 | CN1CCCC(N(c2cnn(C)c2)S(=O)(=O)NC(=O)Nc2c(C(F)(F)F)sc3c2CCC3)C1 (centres unmarked) [Compound 98, 1-[(1-Methyl-1H-pyrazol-4-yl)(1-methylpiperidin-3-yl)sulfamoyl]-3-[2-(trifluoromethyl)-4H,5H,6H-cyclopenta[b]thiophen-3-yl]urea] | 1 to 3 µM | 0.1 to 0.5 µM
19 | Cc1sc2c(c1NC(=O)NS(=O)(=O)N(c1cnn(C)c1)[C@@H]1CCCN(C)C1)CCC2 [Compound 95, 1-[(1-Methyl-1H-pyrazol-4-yl)[(3R)-1-methylpiperidin-3-yl]sulfamoyl]-3-{2-methyl-4H,5H,6H-cyclopenta[b]thiophen-3-yl}urea] | < 1 µM | 0.1 to 0.5 µM
20 | Cc1cc(NC(=O)NS(=O)(=O)N(c2cnn(C3CC3)c2)[C@@H]2CCCN(C)C2)c(C(C)C)s1 [Compound 104, 1-[(1-Cyclopropyl-1H-pyrazol-4-yl)[(3R)-1-methylpiperidin-3-yl]sulfamoyl]-3-[5-methyl-2-(propan-2-yl)thiophen-3-yl]urea] | < 1 µM | < 0.1 µM
21 | Cc1sc(C(F)(F)F)cc1NC(=O)NS(=O)(=O)N(c1cnn(C)c1)C1CCCN(C)C1 (centres unmarked) [Compound 117, 1-[(1-Methyl-1H-pyrazol-4-yl)(1-methylpiperidin-3-yl)sulfamoyl]-3-[2-methyl-5-(trifluoromethyl)thiophen-3-yl]urea] | < 1 µM | 0.1 to 0.5 µM
22 | Cc1sc2c(c1NC(=O)NS(=O)(=O)N(c1cnn(C)c1F)C1CCN(C)CC1)CCC2 [Compound 120, 1-[(5-Fluoro-1-methyl-1H-pyrazol-4-yl)(1-methylpiperidin-4-yl)sulfamoyl]-3-{2-methyl-4H,5H,6H-cyclopenta[b]thiophen-3-yl}urea] | 1 to 3 µM | < 0.1 µM
23 | Cc1cc(NC(=O)NS(=O)(=O)N(c2cnn(C)c2)[C@@H]2CCCN(C)C2)c(C2CC2)s1 [Compound 108, 3-(2-Cyclopropyl-5-methylthiophen-3-yl)-1-[(1-methyl-1H-pyrazol-4-yl)[(3R)-1-methylpiperidin-3-yl]sulfamoyl]urea] | 1 to 3 µM | < 0.1 µM
24 | Cc1cc(NC(=O)NS(=O)(=O)N(c2cnn(C3CC3)c2)C2CCCN(C)C2)c(C(C)C)s1 (centres unmarked) [Compound 112, 1-[(1-Cyclopropyl-1H-pyrazol-4-yl)(1-methylpiperidin-3-yl)sulfamoyl]-3-[5-methyl-2-(propan-2-yl)thiophen-3-yl]urea] | < 1 µM | < 0.1 µM
25 | CC(C)c1sc(Cl)cc1NC(=O)NS(=O)(=O)N(c1cnn(C)c1)[C@@H]1CCCN(C)C1 [Compound 60, 3-[5-Chloro-2-(propan-2-yl)thiophen-3-yl]-1-[(1-methyl-1H-pyrazol-4-yl)-[(3R)-1-methylpiperidin-3-yl]sulfamoyl]urea] | < 1 µM | < 0.1 µM
26 | Cc1cc(NC(=O)NS(=O)(=O)N(c2cnn(C)c2)[C@H]2CCCN(C)C2)c(C(C)C)s1 [Compound 81, 1-[(1-Methyl-1H-pyrazol-4-yl)[(3S)-1-methylpiperidin-3-yl]sulfamoyl]-3-[5-methyl-2-(propan-2-yl)thiophen-3-yl]urea] | < 1 µM | < 0.1 µM
27 | CC(C)c1cc(NC(=O)NS(=O)(=O)N(CCN(C)C)c2cnn(C)c2)c(C(C)C)o1 [Compound 75, 3-[2,5-Bis(propan-2-yl)furan-3-yl]-1-{[2-(dimethylamino)ethyl](1-methyl-1H-pyrazol-4-yl)sulfamoyl}urea] | 3 to 10 µM | 0.1 to 0.5 µM
28 | Cc1sc2c(c1NC(=O)NS(=O)(=O)N(c1cnn(C)c1)C1CCN(C)CC1)CCC2 [Compound 109, 1-[(1-Methyl-1H-pyrazol-4-yl)(1-methylpiperidin-4-yl)sulfamoyl]-3-{2-methyl-4H,5H,6H-cyclopenta[b]thiophen-3-yl}urea] | 1 to 3 µM | 0.1 to 0.5 µM
